# Counter-ions that a name gives are not always drawn.
# Experiment: in vitro
# Details: rat, gh3-tre-luc cells, AC50 (uM) modified / 1000
row,Compound,CC50 at 24 h [µM]
1,CCN(CC)CCN1C(=O)CN=C(c2ccccc2F)c2cc(Cl)ccc21 [Flurazepam],23.1
2,Cc1cc(C)cc(OCC2CNC(=O)O2)c1 (stereo not drawn) [Metaxalone],> 50
3,CC(=C(CCOC(=O)C(C)C)SSC(CCOC(=O)C(C)C)=C(C)N(C=O)Cc1cnc(C)nc1N)N(C=O)Cc1cnc(C)nc1N (stereo in doubt) [Bisibutiamine],> 50
4,CCCOC(=O)c1ccc(O)cc1 [Propylparaben],> 90
5,CC(C)(Oc1ccc(C2CC2(Cl)Cl)cc1)C(=O)O (stereo not drawn) [Ciprofibrate],> 90
6,O=C1c2ccccc2CCc2ccccc21 [Dibenzosuberone],> 90
7,Clc1ccc(Nc2nnc(Cc3ccncc3)c3ccccc23)cc1 [Vatalanib],> 50
8,"CC(C)(C)C1=CC(=O)C=C(C(C)(C)C)C1=O [2,6-Bis-(1,1-dimethylethyl)-2,5-cyclohexadiene-1,4-dione]",> 90
9,O=S1(=O)c2cccc3cccc(c23)N1CCCN1CCN(c2ccc(F)cc2)CC1 [Fananserin],> 50
10,"C=CC(=O)OCC1CC2CC1C1CCC(COC(=O)C=C)C21 (stereo not drawn) [Octahydro-1H-4,7-methanoindene-1,5-diyldimethanediyl bisprop-2-enoate]",75.1
11,O=Cc1c2ccccc2c(Cl)c2ccccc12 [10-Chloro-9-anthraldehyde],> 50
12,"O=C(O)[C@@H](S)[C@H](S)C(=O)O [(2R,3R)-2,3-Dimercaptosuccinic acid]",22.8
13,CN1CCCC1=O [N-Methyl-2-pyrrolidone],> 90
14,O=S(=O)(O)CO [Sodium hydroxymethanesulfonate],> 90
15,CC(C(=O)O)c1ccc(CC2CCCC2=O)cc1 (stereo not drawn) [Loxoprofen],> 50
16,CC(C)NCC(O)COc1ccc(CCOCC2CC2)cc1 (stereo not drawn) [Betaxolol],> 50
17,"CCCCCCCCCCCCCCN(CCO)CCO [2,2'-(Tetradecylimino)diethanol]",23.3
18,CN1CCN(C2=Nc3ccccc3Sc3ccc(Cl)cc32)CC1 [Clothiapine],15.2
19,CSC(=O)c1cccc2nnsc12 [Acibenzolar-S-methyl],> 90
20,Cc1ccc(N(SC(F)(Cl)Cl)S(=O)(=O)N(C)C)cc1 [Tolylfluanid],3.13
21,CCC(C)=O [Methyl ethyl ketone],> 90

row,Compound,CC50 at 24 h [µM]
1,CC(=O)OCC1=C(C(=O)O)N2C(=O)[C@@H](NC(=O)CSc3ccncc3)[C@H]2SC1 [Cephapirin sodium],> 50
2,CC(C)[C@@H](C)/C=C/[C@@H](C)[C@H]1CC[C@H]2/C(=C/C=C3\C[C@@H](O)CC[C@@H]3C)CCC[C@]12C [Dihydrotachysterol],> 50
3,CCCCc1cc2ccccc2c(OCCN(C)C)n1 [Dimethisoquin hydrochloride],7.4
4,CCCC(C)CC (stereo not drawn) [3-Methylhexane],> 90
5,O=C(CCCN1CC=C(n2c(=O)[nH]c3ccccc32)CC1)c1ccc(F)cc1 [Droperidol],> 50
6,COc1cc(NCc2ccc3nc(N)nc(N)c3c2C)cc(OC)c1OC [Trimetrexate trihydrochloride],8.81
7,c1ccc2scnc2c1 [Benzothiazole],> 90
8,CCN(CCC#N)c1ccccc1 [3-[Ethyl(phenyl)amino]propanenitrile],> 90
9,Nc1cc([N+](=O)[O-])ccc1C(=O)O [4-Nitroanthranilic acid],> 90
10,CN(N=O)c1ccc([N+](=O)[O-])cc1 [N-Nitroso-N-methyl-4-nitroaniline],> 90
11,CC(C)(O)CCCC1=CCC(C=O)CC1 (stereo not drawn) [4-(4-Hydroxy-4-methylpentyl)cyclohex-3-ene-1-carbaldehyde],> 100
12,O=NN1CCN(N=O)CC1 [Dinitrosopiperazine],> 90
13,CCCn1cnc2c1c(=O)n(CCCCC(C)=O)c(=O)n2C [Propentofylline],> 50
14,CCOC(=O)C(=O)OCC [Diethyl oxalate],> 90
15,O=C(O)c1cn(-c2ccc(F)cc2)c2cc(N3CCNCC3)c(F)cc2c1=O [Sarafloxacin hydrochloride],> 50
16,OC[C@H]1O[C@H](O[C@H]2O[C@H](CO)[C@@H](O)[C@H](O)[C@H]2O)[C@H](O)[C@@H](O)[C@@H]1O [Trehalose dihydrate],> 90
17,C=CCc1ccc(OC)cc1 [Estragole],> 90
18,CC/C=C\CCOC(=O)c1ccccc1 [(3Z)-Hex-3-en-1-yl benzoate],> 90
19,CCO[Si](C)(CCCOCC1CO1)OCC (stereo not drawn) [Diethoxy(methyl)[3-(oxiran-2-ylmethoxy)propyl]silane],> 90
20,CC(C)(OO)c1ccccc1 [Cumene hydroperoxide],79.6
21,C1CCc2nnnn2CC1 [Pentylenetetrazol],> 50

row,Compound,CC50 at 24 h [µM]
1,OCc1ccco1 [Furfuryl alcohol],> 90
2,O=C(Nc1ccc(O)cc1)c1ccccc1O [Osalmid],> 50
3,"C=CCC=CC [1,4-Hexadiene]",> 90
4,CCN(CC)CCNC(=O)c1ccc(NS(C)(=O)=O)cc1 [Sematilide monohydrochloride],> 50
5,COC(C)(C)CCC[C@H](C)C/C=C/C(C)=C/C(=O)OC(C)C [S-Methoprene],70.9
6,CCCCCCCCCCCCOCCOS(=O)(=O)O [Sodium lauryl polyoxyethylene ether sulfate],41
7,N[C@H](CO)C(=O)O [D-Serine],> 50
8,O=C1NC(=O)[C@@]2(CCOc3ccc(F)cc32)N1 [Sorbinil],> 50
9,S=C=NCc1ccccc1 [Benzyl isothiocyanate],> 90
10,CCOC(=O)COC(=O)c1ccccc1C(=O)OCC [Ethyl phthalyl ethyl glycolate],> 90
11,O=Cc1ccccc1[N+](=O)[O-] [2-Nitrobenzaldehyde],> 90
12,O=C(OCc1ccccc1)c1ccccc1 [Benzyl benzoate],> 90
13,Oc1ncc(N(CCCl)CCCl)c(O)n1 [Uracil mustard],> 50
14,COc1ccc(C(=O)N2CCN(CC(=O)N3CCOCC3)CC2)cc1 [Molracetam],> 50
15,CCCC[N+]1(C)CCCC1 [1-Butyl-1-methylpyrrolidinium hexafluorophosphate],> 90
16,"CC(=O)OC/C=C(\C)CC/C=C(\C)CCC=C(C)C [trans,trans-Farnesyl acetate]",> 90
17,O=C(O)CCCC/C=C(\c1ccccc1)c1cccnc1 [Isbogrel],> 50
18,O=C1c2ccccc2C(=O)c2cc(O)ccc21 [2-Hydroxyanthraquinone],> 90
19,CSCC[C@H](N)C(=O)O [Methionine],> 50
20,CCCCCCCCCCOC(=O)c1ccccc1C(=O)OCCCCCCCC [Octyl decyl phthalate],> 90
21,NC(=O)CC[C@H](Nc1ccc([N+](=O)[O-])cc1)C(=O)O [N2-(4-Nitrophenyl)-L-glutamine hydrochloride],> 90

row,Compound,CC50 at 24 h [µM]
1,O=Cc1ccccc1 [Benzaldehyde],> 90
2,CC(C)COC(=O)c1ccc(O)cc1 [Isobutylparaben],> 90
3,Cc1cc(O)c2c(O)c3c(O)cccc3cc2c1 [Chrysarobin],> 50
4,O=C(N/N=C/c1ccc([N+](=O)[O-])o1)c1ccc(O)cc1 [Nifuroxazide],> 20
5,N=C(N)c1ccc(OCCCOc2ccc(C(=N)N)cc2Br)c(Br)c1 [Dibromopropamidine dihydrochloride],38.5
6,C=CC1=C(C(=O)O)N2C(=O)[C@@H](NC(=O)/C(=N\OCC(=O)O)c3csc(N)n3)[C@H]2SC1 [Cefixime],> 20
7,O=C1c2ccccc2C(=O)C1c1ccc(F)cc1 [Fluindione],> 50
8,"CCC(C)CCCC(C)(C)O (stereo not drawn) [2,6-Dimethyloctan-2-ol]",> 90
9,Clc1cccc(Cl)c1N=C1NCCN1 [Clonidine hydrochloride],> 90
10,COCC(C)OC(C)=O (stereo not drawn) [1-Methoxy-2-propyl acetate],> 90
11,O=C1c2ccccc2C(=O)C1c1nc2ccccc2c(Br)c1O [C.I. Disperse Yellow 64],> 90
12,C=C1C(=O)O[C@H]2[C@H]1CC/C(C)=C/CC[C@@]1(C)O[C@@H]21 [Parthenolide],13.8
13,CC(C)C(=O)O [2-Methylpropanoic acid],> 90
14,CCOC(=O)COC(=O)c1cc(Oc2ccc(C(F)(F)F)cc2Cl)ccc1[N+](=O)[O-] [Fluoroglycofen-ethyl],> 90
15,O=C(O)[C@@H]1CCCN1 [Proline],> 50
16,CC(C)C[C@@H]1NC(=O)[C@H](CCCN)NC(=O)[C@H](C(C)C)NC(=O)[C@H](Cc2ccc(O)cc2)N[C@@H](CCC(=O)O)C(=O)N[C@@H](CC(N)=O)C(=O)[C@@H](Cc2ccccc2)NC(=O)[C@H](Cc2ccccc2)NC(=O)[C@@H]2CCCN2C(=O)[C@@H](Cc2ccccc2)NC1=O [Tyrothricin],1.25
17,"CC(CC=O)CC(C)(C)C (stereo not drawn) [3,5,5-Trimethylhexanal]",> 90
18,c1ccc(-c2ccccc2)cc1 [Biphenyl],> 90
19,S=C=S [Carbon disulfide],> 90

# Same assay, conditions: rat, gh3-tre-luc cells, AC50 (uM) modified / 1000, Tox21_110001=Tox21_200074; viability, 1 nM T3 present, 24 h
row,Compound,CC50 at 24 h [µM]
1,"ClC(Cl)C(Cl)Cl [1,1,2,2-Tetrachloroethane]",> 90

# Same assay, conditions: rat, gh3-tre-luc cells, AC50 (uM) modified / 1000, Tox21_110001=Tox21_200657; viability, 1 nM T3 present, 24 h
row,Compound,CC50 at 24 h [µM]
1,O=C(O)CBr [Bromoacetic acid],> 90

# Same assay, conditions: rat, gh3-tre-luc cells, AC50 (uM) modified / 1000, Tox21_110001=Tox21_201157; viability, 1 nM T3 present, 24 h
row,Compound,CC50 at 24 h [µM]
1,"CC(C)CC(C)N (stereo not drawn) [1,3-Dimethylbutylamine]",> 90

# Same assay, conditions: rat, gh3-tre-luc cells, AC50 (uM) modified / 1000, Tox21_110001=Tox21_201217; viability, 1 nM T3 present, 24 h
row,Compound,CC50 at 24 h [µM]
1,"O=Cc1ccc(Cl)cc1Cl [2,4-Dichlorobenzaldehyde]",> 90

# Same assay, conditions: rat, gh3-tre-luc cells, AC50 (uM) modified / 1000, Tox21_110001=Tox21_202866; viability, 1 nM T3 present, 24 h
row,Compound,CC50 at 24 h [µM]
1,ClCCCCBr [1-Bromo-4-chlorobutane],> 90

# — publication PMC6792352, “Limited Chemical Structural Diversity Found to Modulate Thyroid Hormone Receptor in the Tox21 Chemical Library” (Environmental Health Perspectives, 2019)
